Measurements taken from ChEMBL document CHEMBL5252630, “18-Residue Peptaibols Produced by the Sponge-Derived Trichoderma sp. GXIMD 01001” (J Nat Prod, 2023).
pIC50: −log10 of the molar value. ≈ marks a conversion by molar mass, not a printed value. Calls of active or inactive are those of the source. The calls are words filed in the database; no cut-off is given here.

Experiments:
[1] = tested on: Staphylococcus aureus; assay: Antibacterial activity against Staphylococcus aureus ATCC 25923 assessed as inhibition of bacterial growth incubated for 24 hrs by microtiter plate reader analysis; format: functional
[2] = tested on: Staphylococcus epidermidis; assay: Antibacterial activity against Staphylococcus epidermidis ATCC 14990 assessed as inhibition of bacterial growth incubated for 24 hrs by microtiter plate reader analysis; format: functional
[3] = tested on: Pseudomonas aeruginosa; assay: Antibacterial activity against Pseudomonas aeruginosa ATCC 47085 assessed as inhibition of bacterial growth incubated for 24 hrs by microtiter plate reader analysis; format: functional
[4] = tested on: A549; assay: Antiproliferative activity against human A549 cells assessed as inhibition of cell growth incubated for 72 hrs by CCK-8 assay; format: functional, cell-based; conditions: A549, 72 h
[5] = tested on: NCI-H1299; assay: Antiproliferative activity against human NCI-H1299 cells assessed as inhibition of cell growth incubated for 72 hrs by CCK-8 assay; format: functional, cell-based; conditions: NCI-H1299, 72 h
[6] = tested on: SW480; assay: Antiproliferative activity against human SW480 cells assessed as inhibition of cell growth incubated for 72 hrs by CCK-8 assay; format: functional, cell-based; conditions: SW480, 72 h
[7] = tested on: SW1990; assay: Antiproliferative activity against human SW1990 cells assessed as inhibition of cell growth incubated for 72 hrs by CCK-8 assay; format: functional, cell-based; conditions: SW1990, 72 h
[8] = tested on: SW480; assay: Inhibition of colony formation in human SW480 cells assessed as reduction in number of clonogenic cells at 0 to 2.5 uM incubated for 24 hrs followed by replacement with fresh medium and measured after 24 hrs by crystal violet staining based analysis; format: functional, cell-based; conditions: dose 0-2.5 µM
[9] = tested on: SW480; assay: Induction of apoptosis in human SW480 cells assessed as increase in annexin V/PI positive cells incubated for 24 hrs by annexin V-FITC/PI staining based flow cytometry analysis; format: functional, cell-based; conditions: dose 0-2.5 µM

| Structure (SMILES) | MIC [1] | MIC [2] | MIC [3] | pIC50 [4] | pIC50 [5] | pIC50 [6] | pIC50 [7] | inhibition [8] | Activity [9] |
| --- | --- | --- | --- | --- | --- | --- | --- | --- | --- |
| O=C(N[C@H](CO)[C@H](O)c1ccc([N+](=O)[O-])cc1)C(Cl)Cl [CHLORAMPHENICOL] | 3.1 µg/mL (≈ 9.59 µM) | 1.6 µg/mL (≈ 4.95 µM) | > 180 µg/mL | – | – | – | – | – | – |
| CC[C@@](C)(NC(=O)[C@H](C)NC(=O)[C@H](C)NC(=O)C(C)(C)NC(C)=O)C(=O)N[C@](C)(CC)C(=O)N[C@@H](CCC(N)=O)C(=O)N[C@](C)(CC)C(=O)N[C@H](C(=O)NC(C)(C)C(=O)NCC(=O)N[C@@H](CC(C)C)C(=O)NC(C)(C)C(=O)N1CCC[C@H]1C(=O)N[C@@H](CC(C)C)C(=O)NC(C)(C)C(=O)NC(C)(C)C(=O)N[C@@H](CCC(N)=O)C(=O)N[C@H](CO)Cc1ccccc1)C(C)C | 23 µg/mL (≈ 12.8 µM) | > 180 µg/mL | > 180 µg/mL | 5.57 | 5.52 | 5.82 | 5.82 | – | – |
| CC[C@@](C)(NC(=O)[C@H](CCC(N)=O)NC(=O)[C@@](C)(CC)NC(=O)C(C)(C)NC(=O)[C@H](C)NC(=O)[C@H](C)NC(=O)C(C)(C)NC(C)=O)C(=O)N[C@H](C(=O)NC(C)(C)C(=O)NCC(=O)N[C@@H](CC(C)C)C(=O)NC(C)(C)C(=O)N1CCC[C@H]1C(=O)N[C@@H](CC(C)C)C(=O)NC(C)(C)C(=O)NC(C)(C)C(=O)N[C@@H](CCC(N)=O)C(=O)N[C@H](CO)Cc1ccccc1)C(C)C | 23 µg/mL (≈ 12.9 µM) | 90 µg/mL (≈ 50.6 µM) | > 180 µg/mL | 5.55 | 5.40 | 5.92 | 5.92 | – | – |
| CC[C@@](C)(NC(=O)[C@H](C)NC(=O)[C@H](C)NC(=O)C(C)(C)NC(C)=O)C(=O)N[C@](C)(CC)C(=O)N[C@@H](CCC(N)=O)C(=O)NC(C)(C)C(=O)N[C@H](C(=O)NC(C)(C)C(=O)NCC(=O)N[C@@H](CC(C)C)C(=O)NC(C)(C)C(=O)N1CCC[C@H]1C(=O)N[C@@H](CC(C)C)C(=O)NC(C)(C)C(=O)NC(C)(C)C(=O)N[C@@H](CCC(N)=O)C(=O)N[C@H](CO)Cc1ccccc1)C(C)C | 45 µg/mL (≈ 25.3 µM) | > 180 µg/mL | > 180 µg/mL | 5.89 | 5.89 | 6.34 | 6.34 | Active | Active |
| CC[C@@](C)(NC(=O)[C@H](C)NC(=O)[C@H](CO)NC(=O)C(C)(C)NC(C)=O)C(=O)N[C@](C)(CC)C(=O)N[C@@H](CCC(N)=O)C(=O)N[C@](C)(CC)C(=O)N[C@H](C(=O)NC(C)(C)C(=O)NCC(=O)N[C@@H](CC(C)C)C(=O)NC(C)(C)C(=O)N1CCC[C@H]1C(=O)N[C@@H](CC(C)C)C(=O)NC(C)(C)C(=O)NC(C)(C)C(=O)N[C@@H](CCC(N)=O)C(=O)N[C@H](CO)Cc1ccccc1)C(C)C | 23 µg/mL (≈ 12.7 µM) | 90 µg/mL (≈ 49.7 µM) | > 180 µg/mL | 5.59 | 5.49 | 5.96 | 5.96 | – | – |
| CC[C@@H](C)[C@H](NC(=O)[C@@](C)(CC)NC(=O)[C@H](CCC(N)=O)NC(=O)[C@@](C)(CC)NC(=O)[C@@](C)(CC)NC(=O)[C@H](C)NC(=O)[C@H](CO)NC(=O)C(C)(C)NC(C)=O)C(=O)NC(C)(C)C(=O)NCC(=O)N[C@@H](CC(C)C)C(=O)NC(C)(C)C(=O)N1CCC[C@H]1C(=O)N[C@@H](CC(C)C)C(=O)NC(C)(C)C(=O)NC(C)(C)C(=O)N[C@@H](CCC(N)=O)C(=O)N[C@H](CO)Cc1ccccc1 | 45 µg/mL (≈ 24.7 µM) | > 180 µg/mL | > 180 µg/mL | 5.55 | 5.54 | 6.02 | 6.02 | – | – |
| CC[C@@](C)(NC(=O)C(C)(C)NC(=O)[C@H](C)NC(=O)[C@H](C)NC(=O)C(C)(C)NC(C)=O)C(=O)N[C@@H](CCC(N)=O)C(=O)NC(C)(C)C(=O)N[C@H](C(=O)NC(C)(C)C(=O)NCC(=O)N[C@@H](CC(C)C)C(=O)NC(C)(C)C(=O)N1CCC[C@H]1C(=O)N[C@@H](CC(C)C)C(=O)NC(C)(C)C(=O)NC(C)(C)C(=O)N[C@@H](CCC(N)=O)C(=O)N[C@H](CO)Cc1ccccc1)C(C)C | 45 µg/mL (≈ 25.5 µM) | > 180 µg/mL | > 180 µg/mL | 5.57 | 5.33 | 6.05 | 6.05 | – | – |
| CC[C@@](C)(NC(=O)C(C)(C)NC(=O)[C@H](C)NC(=O)[C@H](C)NC(=O)C(C)(C)NC(C)=O)C(=O)N[C@@H](CCC(N)=O)C(=O)NC(C)(C)C(=O)N[C@H](C(=O)NC(C)(C)C(=O)NCC(=O)N[C@@H](CC(C)C)C(=O)NC(C)(C)C(=O)N1CCC[C@H]1C(=O)N[C@@H](CC(C)C)C(=O)NC(C)(C)C(=O)NC(C)(C)C(=O)N[C@@H](CCC(N)=O)C(=O)N[C@H](CO)Cc1c[nH]c2ccccc12)C(C)C | 23 µg/mL (≈ 12.7 µM) | 90 µg/mL (≈ 49.9 µM) | > 180 µg/mL | 5.60 | 5.47 | 6.06 | 5.89 | – | – |
